Experimental data: patent publication US20250101041A1, “POSITIVE ALLOSTERIC MODULATORS OF THE MUSCARINIC ACETYLCHOLINE RECEPTOR M4” (Vanderbilt University, priority 2022, published 2025)

Target: T1, human mAChR M4 (Homo sapiens, UniProt P08173)
T1 construct: expressed in transfected cells; host or cells: CHO-K1 (American Type Culture Collection), stably expressing hM4 and Gqi5
T1 sequence (P08173 1-479): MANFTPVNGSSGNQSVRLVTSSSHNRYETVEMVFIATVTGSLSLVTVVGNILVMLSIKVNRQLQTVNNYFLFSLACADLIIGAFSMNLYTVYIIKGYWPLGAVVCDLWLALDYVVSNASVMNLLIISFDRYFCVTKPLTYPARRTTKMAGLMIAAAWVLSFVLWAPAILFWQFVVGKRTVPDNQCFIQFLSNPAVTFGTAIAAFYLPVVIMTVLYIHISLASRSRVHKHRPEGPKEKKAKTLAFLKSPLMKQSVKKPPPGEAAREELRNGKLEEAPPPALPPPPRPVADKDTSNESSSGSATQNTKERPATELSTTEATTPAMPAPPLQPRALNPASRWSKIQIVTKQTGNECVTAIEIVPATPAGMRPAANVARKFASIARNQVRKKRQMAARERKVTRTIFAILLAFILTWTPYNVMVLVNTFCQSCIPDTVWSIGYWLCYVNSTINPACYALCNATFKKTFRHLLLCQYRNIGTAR
Experiment: mAChR M4 cell-based functional assay: calcium mobilization (Fluo-4, FDSS), potentiation of EC20 acetylcholine response in hM4-Gqi5 CHO-K1 cells
Conditions: human M4; for Emax at 30 µM: CHO-K1, % ACh maximum at 30 μM; for EC50: potentiation of EC20 acetylcholine response, calcium mobilization
Method in brief: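 CHO-K1 cells stably co-expressing human M4 and chimeric Gqi5, loaded with Fluo-4 AM (50 min, 37 °C). Compounds in 11-point 1:3 series added first; EC20 acetylcholine added at 144 s and again at 230 s. Calcium read on FDSS at 1 Hz; EC50 and Emax from four-parameter logistic fit of potentiated EC20 response.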

SMILES	Emax at 30 µM [%]	EC50 [nM]
Cc1cc(=O)n2nc(N3CCc4ncc(-c5cnn(C)c5C)cc4C3)c(C)c(C)c2n1 [Compound 1-185, 7-(3-(1,5-dimethyl-1H-pyrazol-4-yl)-7,8-dihydro-1,6-naphthyridin-6(5H)-yl)-2,8,9-trimethyl-4H-pyrimido[1,2-b]pyridazin-4-one]	86	752
COc1ccc(-c2cnc3c(c2)CN(c2nn4c(=O)cc(C)nc4c(C)c2C)CC3)cn1 [Compound 1-186, 7-(3-(6-methoxypyridin-3-yl)-7,8-dihydro-1,6-naphthyridin-6(5H)-yl)-2,8,9-trimethyl-4H-pyrimido[1,2-b]pyridazin-4-one]	84	460
Cc1cc(Cl)c(-c2cnc3c(c2)CN(c2nn4c(=O)cc(C(F)F)nc4c(C)c2C)CC3)cn1 [Compound 1-187, 7-(3-(4-chloro-6-methylpyridin-3-yl)-7,8-dihydro-1,6-naphthyridin-6(5H)-yl)-2-(difluoromethyl)-8,9-dimethyl-4H-pyrimido[1,2-b]pyridazin-4-one]	95	109
COc1cc(C)c(-c2cnc3c(c2)CN(c2nn4c(=O)cc(C(F)F)nc4c(C)c2C)CC3)cn1 [Compound 1-188, 2-(difluoromethyl)-7-(3-(6-methoxy-4-methylpyridin-3-yl)-7,8-dihydro-1,6-naphthyridin-6(5H)-yl)-8,9-dimethyl-4H-pyrimido[1,2-b]pyridazin-4-one]	91	103
Cc1c(N2CCc3ncc(-c4cnccc4C(F)(F)F)cc3C2)nn2c(=O)cc(C(F)F)nc2c1C [Compound 1-189, 2-(difluoromethyl)-8,9-dimethyl-7-(3-(4-(trifluoromethyl)pyridin-3-yl)-7,8-dihydro-1,6-naphthyridin-6(5H)-yl)-4H-pyrimido[1,2-b]pyridazin-4-one]	48	515
COc1ccncc1-c1cnc2c(c1)CN(c1nn3c(=O)cc(C(F)F)nc3c(C)c1C)CC2 [Compound 1-190, 2-(difluoromethyl)-7-(3-(4-methoxypyridin-3-yl)-7,8-dihydro-1,6-naphthyridin-6(5H)-yl)-8,9-dimethyl-4H-pyrimido[1,2-b]pyridazin-4-one]	77	156
Cc1ccc(-c2cnc3c(c2)CN(c2nn4c(=O)cc(C(F)F)nc4c(C)c2C)CC3)cc1F [Compound 1-191, 2-(difluoromethyl)-7-(3-(3-fluoro-4-methylphenyl)-7,8-dihydro-1,6-naphthyridin-6(5H)-yl)-8,9-dimethyl-4H-pyrimido[1,2-b]pyridazin-4-one]	84	2400
Cc1c(N2CCc3ncc(-c4cnn(C5CCOCC5)c4)cc3C2)nn2c(=O)ccnc2c1C [Compound 1-192, 8,9-dimethyl-7-(3-(1-(tetrahydro-2H-pyran-4-yl)-1H-pyrazol-4-yl)-7,8-dihydro-1,6-naphthyridin-6(5H)-yl)-4H-pyrimido[1,2-b]pyridazin-4-one]	64	139
Cc1c(N2CCc3ncc(-c4cnn(-c5ccccc5F)c4)cc3C2)nn2c(=O)ccnc2c1C [Compound 1-193, 7-(3-(1-(2-fluorophenyl)-1H-pyrazol-4-yl)-7,8-dihydro-1,6-naphthyridin-6(5H)-yl)-8,9-dimethyl-4H-pyrimido[1,2-b]pyridazin-4-one]	71	783
Cc1ccc(F)cc1-c1cnc2c(c1)CN(c1nn3c(=O)ccnc3c(C)c1C)CC2 [Compound 1-194, 7-(3-(5-fluoro-2-methylphenyl)-7,8-dihydro-1,6-naphthyridin-6(5H)-yl)-8,9-dimethyl-4H-pyrimido[1,2-b]pyridazin-4-one]	83	93
Cc1cc2nc(C(C)(C)O)cc(=O)n2nc1N1CCc2ncc(C(F)(F)F)cc2C1 [Compound 1-195, 2-(2-hydroxypropan-2-yl)-8-methyl-7-(3-(trifluoromethyl)-7,8-dihydro-1,6-naphthyridin-6(5H)-yl)-4H-pyrimido[1,2-b] pyridazin-4-one]	82	185
Cc1cc(=O)n2nc(N3CCc4ncc(-c5ccc(C)c(F)c5)cc4C3)c(C)c(C)c2n1 [Compound 1-196, 7-(3-(3-fluoro-4-methylphenyl)-7,8-dihydro-1,6-naphthyridin-6(5H)-yl)-2,8,9-trimethyl-4H-pyrimido[1,2-b]pyridazin-4-one]	80	1130
Cc1cc(=O)n2nc(N3CCc4ncc(-c5cnc(Cl)cc5C)cc4C3)c(C)c(C)c2n1 [Compound 1-197, 7-(3-(6-chloro-4-methylpyridin-3-yl)-7,8-dihydro-1,6-naphthyridin-6(5H)-yl)-2,8,9-trimethyl-4H-pyrimido[1,2-b]pyridazin-4-one]	81	275
COc1cc(C)c(-c2cnc3c(c2)CN(c2nn4c(=O)cc(C)nc4c(C)c2C)CC3)cn1 [Compound 1-198, 7-(3-(6-methoxy-4-methylpyridin-3-yl)-7,8-dihydro-1,6-naphthyridin-6(5H)-yl)-2,8,9-trimethyl-4H-pyrimido[1,2-b]pyridazin-4-one]	83	1920
COc1cncc(-c2cnc3c(c2)CN(c2nn4c(=O)cc(C)nc4c(C)c2C)CC3)c1 [Compound 1-199, 7-(3-(5-methoxypyridin-3-yl)-7,8-dihydro-1,6-naphthyridin-6(5H)-yl)-2,8,9-trimethyl-4H-pyrimido[1,2-b]pyridazin-4-one]	74	526
Cc1cc(=O)n2nc(N3CCc4ncc(-c5cc(F)c(F)cc5F)cc4C3)c(C)c(C)c2n1 [Compound 1-200, 2,8,9-trimethyl-7-(3-(2,4,5-trifluorophenyl)-7,8-dihydro-1,6-naphthyridin-6(5H)-yl)-4H-pyrimido[1,2-b] pyridazin-4-one]	84	531
COc1ccc(-c2cnc3c(c2)CN(c2nn4c(=O)cc(C)nc4c(C)c2C)CC3)cc1F [Compound 1-201, 7-(3-(3-fluoro-4-methoxyphenyl)-7,8-dihydro-1,6-naphthyridin-6(5H)-yl)-2,8,9-trimethyl-4H-pyrimido[1,2-b]pyridazin-4-one]	86	603
Cc1cc(=O)n2nc(N3CCc4ncc(-c5cnc(F)cc5C)cc4C3)c(C)c(C)c2n1 [Compound 1-202, 7-(3-(6-fluoro-4-methylpyridin-3-yl)-7,8-dihydro-1,6-naphthyridin-6(5H)-yl)-2,8,9-trimethyl-4H-pyrimido[1,2-b]pyridazin-4-one]	91	104
Cc1cc(=O)n2nc(N3CCc4ncc(-c5cccc(F)c5)cc4C3)c(C)c(C)c2n1 [Compound 1-203, 7-(3-(3-fluorophenyl)-7,8-dihydro-1,6-naphthyridin-6(5H)-yl)-2,8,9-trimethyl-4H-pyrimido[1,2-b]pyridazin-4-one]	80	417
Cc1cc(=O)n2nc(N3CCc4ncc(-c5ccc(F)nc5)cc4C3)c(C)c(C)c2n1 [Compound 1-204, 7-(3-(6-fluoropyridin-3-yl)-7,8-dihydro-1,6-naphthyridin-6(5H)-yl)-2,8,9-trimethyl-4H-pyrimido[1,2-b]pyridazin-4-one]	92	102
Cc1cc(=O)n2nc(N3CCc4ncc(-c5ccc(F)c(F)c5)cc4C3)c(C)c(C)c2n1 [Compound 1-205, 7-(3-(3,4-difluorophenyl)-7,8-dihydro-1,6-naphthyridin-6(5H)-yl)-2,8,9-trimethyl-4H-pyrimido[1,2-b]pyridazin-4-one]	81	1240
Cc1cc(=O)n2nc(N3CCc4ncc(-c5ccc(C)c(F)c5)cc4C3)c(C)cc2n1 [Compound 1-206, 7-(3-(3-fluoro-4-methylphenyl)-7,8-dihydro-1,6-naphthyridin-6(5H)-yl)-2,8-dimethyl-4H-pyrimido[1,2-b]pyridazin-4-one]	71	409
Cc1cc(=O)n2nc(N3CCc4ncc(-c5cnc(Cl)cc5C)cc4C3)c(C)cc2n1 [Compound 1-207, 7-(3-(6-chloro-4-methylpyridin-3-yl)-7,8-dihydro-1,6-naphthyridin-6(5H)-yl)-2,8-dimethyl-4H-pyrimido[1,2-b]pyridazin-4-one]	91	315
Cc1cc(=O)n2nc(N3CCc4ncc(-c5cc(F)c(F)cc5F)cc4C3)c(C)cc2n1 [Compound 1-208, 2,8-dimethyl-7-(3-(2,4,5-trifluorophenyl)-7,8-dihydro-1,6-naphthyridin-6(5H)-yl)-4H-pyrimido[1,2-b]pyridazin-4-one]	86	518
Cc1cc(=O)n2nc(N3CCc4ncc(-c5cnc(F)cc5C)cc4C3)c(C)cc2n1 [Compound 1-209, 7-(3-(6-fluoro-4-methylpyridin-3-yl)-7,8-dihydro-1,6-naphthyridin-6(5H)-yl)-2,8-dimethyl-4H-pyrimido[1,2-b]pyridazin-4-one]	88	266
